Key:
[1] = Compound cytotoxicity, XTT-based colorimetric assay; assay type: cell-based; conditions: human, uninfected MT2 cells, day 4, XTT
How it was run: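 Run under the antiviral-assay protocol but without virus. Viability was read on day 4 and CC50 values were derived from the readout.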

[2] = tested on: recombinant NL4-3 virus (nef section replaced with Renilla luciferase gene) in MT-2 cells; assay: HIV cell culture assay (antiviral activity, luciferase readout); assay type: cell-based; conditions: Renilla, NL43, MT-2 cells infected for 4-5 days with recombinant NL4-3 Renilla luciferase virus, serial dilutions of compound
How it was run: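 Test compound in serial dilution was present while MT-2 cells were infected for 4–5 days with recombinant NL4-3 virus made in 293T cells. Antiviral activity was quantified as Renilla luciferase activity, read with a live-cell substrate. EC50 came from the median-effect equation.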

Row | SMILES | CC50 at 4 day [1] | EC50 [2]
1 | O=C(Cn1nc(C(F)F)c2c1C(F)(F)[C@@H]1C[C@H]21)N[C@@H](Cc1cc(F)cc(F)c1)c1nc2cc(-c3cc(F)ccc3F)ccc2c(=O)n1-c1ccc(S(=O)(=O)N2CCOCC2)cc1 [Example 29, 2-((3bS,4aR)-3-(difluoromethyl)-5,5-difluoro-3b,4,4a,5-tetrahydro-1H-cyclopropa[3,4]cyclopenta[1,2-c]pyrazol-1-yl)-N-((S)-2-(3,5-difluorophenyl)-1-(7-(2,5-difluorophenyl)-3-(4-(morpholinosulfonyl)phenyl)-4-oxo-3,4-dihydroquinazolin-2-yl)ethyl)acetamide] | > 1 µM | 0.0029 µM
2 | COc1ccc(-c2ccc3c(=O)n(-c4ccc(S(=O)(=O)N5CCOCC5)cc4)c([C@H](Cc4cc(F)cc(F)c4)NC(=O)Cn4ccc(C5CC5)n4)nc3c2)cn1 [Example 32, (S)-2-(3-cyclopropyl-1H-pyrazol-1-yl)-N-(2-(3,5-difluorophenyl)-1-(7-(6-methoxypyridin-3-yl)-3-(4-(morpholinosulfonyl)phenyl)-4-oxo-3,4-dihydroquinazolin-2-yl)ethyl)acetamide] | > 1 µM | 0.0058 µM
3 | O=C(Cn1ccc(C2CC2)n1)N[C@@H](Cc1cc(F)cc(F)c1)c1nc2cc(-c3c(F)cccc3F)ccc2c(=O)n1-c1ccc(S(=O)(=O)N2CCOCC2)cc1 [Example 37, (S)-2-(3-cyclopropyl-1H-pyrazol-1-yl)-N-(2-(3,5-difluorophenyl)-1-(7-(2,6-difluorophenyl)-3-(4-(morpholinosulfonyl)phenyl)-4-oxo-3,4-dihydroquinazolin-2-yl)ethyl)acetamide] | > 1 µM | 0.0088 µM
4 | O=C(Cn1ccc(C2CC2)n1)N[C@@H](Cc1cc(F)cc(F)c1)c1nc2cc(-c3ccccc3Oc3ccccc3)ccc2c(=O)n1-c1ccc(S(=O)(=O)N2CCOCC2)cc1 [Example 42, (S)-2-(3-cyclopropyl-1H-pyrazol-1-yl)-N-(2-(3,5-difluorophenyl)-1-(3-(4-(morpholinosulfonyl)phenyl)-4-oxo-7-(2-phenoxyphenyl)-3,4-dihydroquinazolin-2-yl)ethyl)acetamide] | > 1 µM | 0.054 µM
5 | Cc1cccc(C)c1-c1ccc2c(=O)n(-c3ccc(S(=O)(=O)N4CCOCC4)cc3)c([C@H](Cc3cc(F)cc(F)c3)NC(=O)Cn3ccc(C4CC4)n3)nc2c1 [Example 49, (S)-2-(3-cyclopropyl-1H-pyrazol-1-yl)-N-(2-(3,5-difluorophenyl)-1-(7-(2,6-dimethylphenyl)-3-(4-(morpholinosulfonyl)phenyl)-4-oxo-3,4-dihydroquinazolin-2-yl)ethyl)acetamide] | > 1 µM | 0.03 µM
6 | Cc1cc(Cl)ccc1-c1ccc2c(=O)n(-c3ccc(S(=O)(=O)N4CCOCC4)cc3)c([C@H](Cc3cc(F)cc(F)c3)NC(=O)Cn3ccc(C4CC4)n3)nc2c1 [Example 50, (S)-N-(1-(7-(4-chloro-2-methylphenyl)-3-(4-(morpholinosulfonyl)phenyl)-4-oxo-3,4-dihydroquinazolin-2-yl)-2-(3,5-difluorophenyl)ethyl)-2-(3-cyclopropyl-1H-pyrazol-1-yl)acetamide] | > 1 µM | 0.07 µM
7 | COc1cccc(-c2ccc3c(=O)n(-c4ccc(S(=O)(=O)N5CCOCC5)cc4)c([C@H](Cc4cc(F)cc(F)c4)NC(=O)Cn4ccc(C5CC5)n4)nc3c2)n1 [Example 55, (S)-2-(3-cyclopropyl-1H-pyrazol-1-yl)-N-(2-(3,5-difluorophenyl)-1-(7-(6-methoxypyridin-2-yl)-3-(4-(morpholinosulfonyl)phenyl)-4-oxo-3,4-dihydroquinazolin-2-yl)ethyl)acetamide] | > 1 µM | 0.0087 µM
8 | O=C(Cn1nc(C(F)F)c2c1C(F)(F)[C@@H]1C[C@H]21)N[C@@H](Cc1cc(F)cc(F)c1)c1nc2cc(-c3ccncc3)ccc2c(=O)n1-c1ccc(S(=O)(=O)N2CCOCC2)cc1 [Example 69, 2-((3bS,4aR)-3-(difluoromethyl)-5,5-difluoro-3b,4,4a,5-tetrahydro-1H-cyclopropa[3,4]cyclopenta[1,2-c]pyrazol-1-yl)-N-((S)-2-(3,5-difluorophenyl)-1-(3-(4-(morpholinosulfonyl)phenyl)-4-oxo-7-(pyridin-4-yl)-3,4-dihydroquinazolin-2-yl)ethyl)acetamide] | > 1 µM | 0.001 µM
9 | O=C(Cn1ccc(C2CC2)n1)N[C@@H](Cc1cc(F)cc(F)c1)c1nc2cc(-c3cccc(F)c3F)ccc2c(=O)n1-c1ccc(S(=O)(=O)N2CCOCC2)cc1 [Example 74, (S)-2-(3-cyclopropyl-1H-pyrazol-1-yl)-N-(2-(3,5-difluorophenyl)-1-(7-(2,3-difluorophenyl)-3-(4-(morpholinosulfonyl)phenyl)-4-oxo-3,4-dihydroquinazolin-2-yl)ethyl)acetamide] | > 1 µM | 0.016 µM
10 | Cc1cccc(C)c1-c1ccc2c(=O)n(-c3ccc(S(=O)(=O)N4CCOCC4)cc3)c([C@H](Cc3cc(F)cc(F)c3)NC(=O)Cn3nc(C(F)F)c4c3C(F)(F)[C@@H]3C[C@H]43)nc2c1 [Example 77, 2-((3bS,4aR)-3-(difluoromethyl)-5,5-difluoro-3b,4,4a,5-tetrahydro-1H-cyclopropa[3,4]cyclopenta[1,2-c]pyrazol-1-yl)-N-((S)-2-(3,5-difluorophenyl)-1-(7-(2,6-dimethylphenyl)-3-(4-(morpholinosulfonyl)phenyl)-4-oxo-3,4-dihydroquinazolin-2-yl)ethyl)acetamide] | > 1 µM | 0.0042 µM
11 | O=C(Cn1nc(C(F)F)c2c1C(F)(F)[C@@H]1C[C@H]21)N[C@@H](Cc1cc(F)cc(F)c1)c1nc2cc(-c3ccc(Cl)cc3Cl)ccc2c(=O)n1-c1ccc(S(=O)(=O)N2CCOCC2)cc1 [Example 80, N-((S)-1-(7-(2,4-dichlorophenyl)-3-(4-(morpholinosulfonyl)phenyl)-4-oxo-3,4-dihydroquinazolin-2-yl)-2-(3,5-difluorophenyl)ethyl)-2-((3bS,4aR)-3-(difluoromethyl)-5,5-difluoro-3b,4,4a,5-tetrahydro-1H-cyclopropa[3,4]cyclopenta[1,2-c]pyrazol-1-yl)acetamide] | > 1 µM | 0.008 µM
12 | O=C(Cn1ccc(C2CC2)n1)N[C@@H](Cc1cc(F)cc(F)c1)c1nc2cc(-c3ccc(Cl)cc3Cl)ccc2c(=O)n1-c1ccc(S(=O)(=O)N2CCOCC2)cc1 [Example 81, (S)-2-(3-cyclopropyl-1H-pyrazol-1-yl)-N-(1-(7-(2,4-dichlorophenyl)-3-(4-(morpholinosulfonyl)phenyl)-4-oxo-3,4-dihydroquinazolin-2-yl)-2-(3,5-difluorophenyl)ethyl)acetamide] | > 1 µM | 0.056 µM
13 | COc1cccc(OC)c1-c1ccc2c(=O)n(-c3ccc(S(=O)(=O)N4CCOCC4)cc3)c([C@H](Cc3cc(F)cc(F)c3)NC(=O)Cn3nc(C(F)F)c4c3C(F)(F)[C@@H]3C[C@H]43)nc2c1 [Example 83, 2-((3bS,4aR)-3-(difluoromethyl)-5,5-difluoro-3b,4,4a,5-tetrahydro-1H-cyclopropa[3,4]cyclopenta[1,2-c]pyrazol-1-yl)-N-((S)-2-(3,5-difluorophenyl)-1-(7-(2,6-dimethoxyphenyl)-3-(4-(morpholinosulfonyl)phenyl)-4-oxo-3,4-dihydroquinazolin-2-yl)ethyl)acetamide] | > 1 µM | 0.005 µM
14 | Cc1cc(F)ccc1-c1ccc2c(=O)n(-c3ccc(S(=O)(=O)N4CCOCC4)cc3)c([C@H](Cc3cc(F)cc(F)c3)NC(=O)Cn3ccc(C4CC4)n3)nc2c1 [Example 102, (S)-2-(3-cyclopropyl-1H-pyrazol-1-yl)-N-(2-(3,5-difluorophenyl)-1-(7-(4-fluoro-2-methylphenyl)-3-(4-(morpholinosulfonyl)phenyl)-4-oxo-3,4-dihydroquinazolin-2-yl)ethyl)acetamide] | > 1 µM | 0.048 µM
15 | COc1ccc(-c2ccc3c(=O)n(-c4ccc(S(=O)(=O)N5CCOCC5)cc4)c([C@H](Cc4cc(F)cc(F)c4)NC(=O)Cn4nc(C(F)F)c5c4C(F)(F)[C@@H]4C[C@H]54)nc3c2)cn1 [Example 112, 2-((3bS,4aR)-3-(difluoromethyl)-5,5-difluoro-3b,4,4a,5-tetrahydro-1H-cyclopropa[3,4]cyclopenta[1,2-c]pyrazol-1-yl)-N-((S)-2-(3,5-difluorophenyl)-1-(7-(6-methoxypyridin-3-yl)-3-(4-(morpholinosulfonyl)phenyl)-4-oxo-3,4-dihydroquinazolin-2-yl)ethyl)acetamide] | > 1 µM | 0.004 µM
16 | O=C(Cn1ccc(C2CC2)n1)N[C@@H](Cc1cc(F)cc(F)c1)c1nc2cc(-c3c(Cl)cccc3Cl)ccc2c(=O)n1-c1ccc(S(=O)(=O)N2CCOCC2)cc1 [Example 114, (S)-2-(3-cyclopropyl-1H-pyrazol-1-yl)-N-(1-(7-(2,6-dichlorophenyl)-3-(4-(morpholinosulfonyl)phenyl)-4-oxo-3,4-dihydroquinazolin-2-yl)-2-(3,5-difluorophenyl)ethyl)acetamide] | > 1 µM | 0.015 µM
17 | Cc1cc(C(F)F)nn1CC(=O)N[C@@H](Cc1cc(F)cc(F)c1)c1nc2cc(-c3ccccc3F)ccc2c(=O)n1-c1ccc(Cl)c2c(NS(=O)(=O)C3CC3)nn(CC(F)F)c12 [Example 137, (S)-N-(1-(3-(4-chloro-3-(cyclopropanesulfonamido)-1-(2,2-difluoroethyl)-1H-indazol-7-yl)-7-(2-fluorophenyl)-4-oxo-3,4-dihydroquinazolin-2-yl)-2-(3,5-difluorophenyl)ethyl)-2-(3-(difluoromethyl)-5-methyl-1H-pyrazol-1-yl)acetamide] | > 1 µM | 0.0084 µM

— US11505543B2, “4-oxo-3,4-dihydroquinazoline compounds as inhibitors of human immunodeficiency virus replication” (VIIV HEALTHCARE UK (NO.5) LIMITED, priority 2018, dated 2022)
